# Source: ChEMBL document CHEMBL3621063, “Discovery of potent HIV-1 non-nucleoside reverse transcriptase inhibitors from arylthioacetanilide structural motif” (Eur J Med Chem, 2015)
# Assays:
# [1] = tested on: Human immunodeficiency virus 1; experiment: Antiviral activity against wild-type HIV-1 infected in human MT4 cells; type: functional, organism-based; settings: Human immunodeficiency virus 1, MT4
# [2] = tested on: Human immunodeficiency virus 1; experiment: Antiviral activity against HIV-1 harboring reverse transcriptase K103N/Y181C double mutant infected in human MT4 cells; type: functional, organism-based; settings: Human immunodeficiency virus 1, MT4
# [3] = Cytotoxicity against human MT4 cells; type: cell-based
# [4] = Selectivity index, ratio of CC50 for human MT4 cells to EC50 for wild-type HIV-1 infected in human MT4 cells; type: toxicity, cell-based; settings: uninfected and infected with wild-type HIV-1, read-out: Ratio CC50/EC50
# [5] = Selectivity index, ratio of CC50 for human MT4 cells to EC50 for HIV-1 harboring reverse transcriptase K103N/Y181C double mutant infected in human MT4 cells; type: toxicity, cell-based; settings: read-out: Ratio CC50/EC50
# [6] = tested on: Human immunodeficiency virus 1; experiment: Antiviral activity against HIV-1 3B infected in human MT4 cells assessed as cell viability after 5 days by MTT assay; type: functional, organism-based; settings: Human immunodeficiency virus 1, 3B, MT4, 120 h
SMILES,EC50 [1] [nM],EC50 [2] [µM],CC50 [3] [µM],selectivity ratio [4],selectivity ratio [5],EC50 [6] [nM]
O=C(CSc1nnsc1-c1cccc2ccccc12)Nc1cccnc1Cl,19,5.11,121,6440,24,–
O=C(CSc1sc(Cl)nc1-c1ccc(Br)cc1Br)Nc1ccccc1[N+](=O)[O-],–,–,–,–,–,2090
O=C(CSc1nnsc1-c1cccc2ccccc12)Nc1ccccc1Br,44,34.4,172,3920,5,–
